Data as given in ChEMBL document CHEMBL5634135, “Design, synthesis, and biological evaluation of quinoline-piperazine/pyrrolidine derivatives as possible antileishmanial agents” (Eur J Med Chem, 2023).
The source made the active and inactive calls. The calls are words filed in the database; no cut-off is given here.

Assays:
Leishmania donovani [1] = assay: Antileishmanial activity against amastigote form of luciferase expressing Leishmania donovani MHOM/IN/80/Dd8 infected in mouse J774.A1 cells assessed as inhibition of parasite growth measured after 72 hrs by luciferase reporter gene assay; format: functional, organism-based; conditions: MHOM/IN/80/Dd8, J774.A1, 72 h
[2] = Cytotoxicity against mouse J774.A1 cells assessed as reduction in cell viability incubated for 48 hrs by MTT assay; format: toxicity, cell-based
[3] = Safety index, ratio of CC50 for cytotoxicity against mouse J774.A1 cells to IC50 for antileishmanial activity against amastigote form of luciferase expressing Leishmania donovani MHOM/IN/80/Dd8 infected in mouse J774.A1; format: toxicity, cell-based; conditions: read-out: Ratio CC50/IC50
Leishmania infantum [4] = assay: Antileishmanial activity against promastigote form of Leishmania infantum BCN150 overexpressing iRFP assessed as inhibition of parasite growth measured after 52 hrs; format: functional, organism-based; conditions: BCN150, 52 h
Leishmania infantum [5] = assay: Antileishmanial activity against amastigote form of Leishmania infantum BCN150 overexpressing iRFP assessed as inhibition of parasite growth measured after 52 hrs; format: functional, organism-based; conditions: BCN150, 52 h
Leishmania donovani [6] = assay: Antileishmanial activity against amastigote form of luciferase expressing Leishmania donovani MHOM/IN/80/Dd8 infected in mouse J774.A1 cells assessed as inhibition of parasite growth at 50 uM measured after 72 hrs by luciferase reporter gene assay; format: functional, organism-based
Leishmania donovani [7] = assay: Antileishmanial activity against amastigote form of Leishmania donovani infected in golden hamster assessed as reduction in parasite load in spleen at 50 mg/kg, ip administered for 5 days and measured on day 7 post-drug treatment by Giemsa staining based analysis; format: functional; conditions: 288 h, time 12 day
Leishmania donovani [8] = assay: Antileishmanial activity against amastigote form of Leishmania donovani infected in golden hamster assessed as reduction in parasite load in spleen at 50 mg/kg, ip administered for 5 days and measured on day 28 post-dug treatment by Giemsa staining based analysis; format: functional; conditions: 792 h, time 33 day
[9] = Toxicity against golden hamster infected with amastigote form of Leishmania donovani assessed as skin rashes at 50 mg/kg, ip administered for 5 days; format: organism-based, Mesocricetus auratus; conditions: in vivo, 120 h, time 5 day
[10] = Toxicity against golden hamster infected with amastigote form of Leishmania donovani assessed as discomfort at 50 mg/kg, ip administered for 5 days; format: organism-based, Mesocricetus auratus; conditions: in vivo, 120 h, time 5 day
[11] = Toxicity against golden hamster infected with amastigote form of Leishmania donovani assessed as animal's death at 50 mg/kg, ip administered for 5 days; format: organism-based, Mesocricetus auratus; conditions: in vivo, 120 h, time 5 day
[12] = Cmax in golden hamster at 50 mg/kg, ip measured for 24 hrs by LC-MS/MS analysis; format: ADME, organism-based, Mesocricetus auratus; conditions: in vivo
[13] = Tmax in golden hamster at 50 mg/kg, ip measured for 24 hrs by LC-MS/MS analysis; format: ADME, organism-based, Mesocricetus auratus; conditions: in vivo
[14] = AUC in golden hamster at 50 mg/kg, ip measured for 24 hrs by LC-MS/MS analysis; format: ADME, organism-based, Mesocricetus auratus; conditions: in vivo
[15] = Half life in golden hamster at 50 mg/kg, ip measured for 24 hrs by LC-MS/MS analysis; format: ADME, organism-based, Mesocricetus auratus; conditions: in vivo
[16] = Clearance in golden hamster at 50 mg/kg, ip measured for 24 hrs by LC-MS/MS analysis; format: ADME, organism-based, Mesocricetus auratus; conditions: in vivo
[17] = Volume of distribution in golden hamster at 50 mg/kg, ip measured for 24 hrs by LC-MS/MS analysis; format: ADME, organism-based, Mesocricetus auratus; conditions: in vivo
[18] = MRT in golden hamster at 50 mg/kg, ip measured for 24 hrs by LC-MS/MS analysis; format: ADME, organism-based, Mesocricetus auratus; conditions: in vivo
Leishmania donovani [19] = assay: Antileishmanial activity against Leishmania donovani assessed as inhibition of parasite growth; format: functional, organism-based

OC(COc1ccc(-c2cc(-c3ccccc3)c3ccccc3n2)cc1)CN1CCN(c2ccccn2)CC1 (stereo not drawn)
IC50 (Leishmania donovani [1]): 7.01 µM | CC50 at 48 h [2]: 27.2 µM | selectivity ratio [3]: 3.88

COc1ccccc1N1CCN(C(=O)CN(Cc2ccccc2)c2ccc(Cl)cc2)CC1
IC50 (Leishmania infantum [4]): 3.61 µM | IC50 (Leishmania infantum [5]): 44.1 µM

Cc1ncc([N+](=O)[O-])n1CC(O)COc1ccc(-c2cc(-c3ccccc3)c3ccccc3n2)cc1 (stereo not drawn)
inhibition (Leishmania donovani [6]): inactive

COc1ccc(N2CCN(CC(O)COc3ccc(-c4cc(-c5ccccc5Cl)c5cc(Cl)ccc5n4)cc3)CC2)cc1 (stereo not drawn)
inhibition (Leishmania donovani [6]): inactive

OC(COc1ccc(-c2cc(-c3ccccc3Cl)c3cc(Cl)ccc3n2)cc1)CN1CCN(c2ccccn2)CC1 (stereo not drawn)
IC50 (Leishmania donovani [1]): 5.56 µM | CC50 at 48 h [2]: 41.9 µM | selectivity ratio [3]: 7.52

O=[N+]([O-])c1ccc2nc(-c3ccc(OCC(O)CN4CCN(c5cccc(Cl)c5Cl)CC4)cc3)cc(-c3ccccc3)c2c1 (stereo not drawn)
inhibition (Leishmania donovani [6]): inactive

OC(COc1ccc(-c2cc(-c3ccccc3)c3ccccc3n2)cc1)CN1CCN(c2ccccc2)CC1 (stereo not drawn)
IC50 (Leishmania donovani [1]): 5.39 µM | CC50 at 48 h [2]: 21.5 µM | selectivity ratio [3]: 3.98

OC(COc1ccc(-c2cc(-c3ccccc3Cl)c3cc(Cl)ccc3n2)cc1)CN1CCN(c2cccc(Cl)c2Cl)CC1 (stereo not drawn)
IC50 (Leishmania donovani [1]): 5.39 µM | CC50 at 48 h [2]: 63.5 µM | selectivity ratio [3]: 11.8 | inhibition in vivo at 50 mg/kg (Leishmania donovani [7]): 40.7% | inhibition in vivo at 50 mg/kg (Leishmania donovani [8]): 56.3% | Activity [9]: Non-Toxic | Activity [10]: Non-Toxic | Activity [11]: Non-Toxic | Cmax [12]: 9930 ng/mL | Tmax [13]: 2 h | AUC at 24 h [14]: 32900 ng·h/mL | half-life [15]: 5 h | CL/F [16]: 25.8 mL/min/kg | Vd [17]: 11.25 L/kg | MRT [18]: 5.56 h

NC(=O)C1CCN(CC(O)COc2ccc(-c3cc(-c4ccccc4)c4ccccc4n3)cc2)CC1 (stereo not drawn)
inhibition (Leishmania donovani [6]): inactive

CCOC(=O)N1CCN(CC(O)COc2ccc(-c3cc(-c4ccccc4)c4cc(Cl)ccc4n3)cc2)CC1 (stereo not drawn)
inhibition (Leishmania donovani [6]): inactive

Cc1ccc2c(-c3ccccc3)cc(-c3ccc(OCC(O)CN4CCCC4)cc3)nc2c1 (stereo not drawn)
inhibition (Leishmania donovani [6]): inactive

OC(COc1ccc(-c2ccc3ccccc3n2)cc1)CN1CCN(c2cccc(Cl)c2Cl)CC1 (stereo not drawn)
inhibition (Leishmania donovani [6]): inactive

OC(COc1ccc(-c2ccc3ccccc3n2)cc1)CN1CCCC1 (stereo not drawn)
IC50 (Leishmania donovani [1]): 8.89 µM | CC50 at 48 h [2]: 54.7 µM | selectivity ratio [3]: 6.15

OC(COc1ccc(-c2cc(-c3ccccc3)c3ccc(Br)cc3n2)cc1)CN1CCCC1 (stereo not drawn)
IC50 (Leishmania donovani [1]): 5.32 µM | CC50 at 48 h [2]: 49.7 µM | selectivity ratio [3]: 9.34

OC(COc1ccc(-c2cc(-c3ccccc3F)c3cc(Cl)ccc3n2)cc1)CN1CCN(c2cccc(Cl)c2Cl)CC1 (stereo not drawn)
inhibition (Leishmania donovani [6]): inactive

Cc1ccc(Cl)cc1N1CCN(CC(O)COc2ccc(-c3cc(-c4ccccc4Cl)c4cc(Cl)ccc4n3)cc2)CC1 (stereo not drawn)
inhibition (Leishmania donovani [6]): inactive

Cc1ccc2c(-c3ccccc3)cc(-c3ccc(OCC(O)CN4CCN(c5cccc(Cl)c5Cl)CC4)cc3)nc2c1 (stereo not drawn)
inhibition (Leishmania donovani [6]): inactive

O=C(c1ccco1)N1CCN(CC(O)COc2ccc(-c3cc(-c4ccccc4)c4cc(Cl)ccc4n3)cc2)CC1 (stereo not drawn)
IC50 (Leishmania donovani [1]): 8.13 µM | CC50 at 48 h [2]: 57.8 µM | selectivity ratio [3]: 7.1

OC(COc1ccc(-c2cc(-c3ccccc3)c3ccccc3n2)cc1)Cn1cncn1 (stereo not drawn)
inhibition (Leishmania donovani [6]): inactive

O=C(c1ccco1)N1CCN(CC(O)COc2ccc(-c3cc(-c4ccccc4)c4ccccc4n3)cc2)CC1 (stereo not drawn)
IC50 (Leishmania donovani [1]): 8.22 µM | CC50 at 48 h [2]: 21.8 µM | selectivity ratio [3]: 2.64

OC(COc1ccc(-c2cc(-c3ccccc3)c3cc(Cl)ccc3n2)cc1)CN1CCN(c2cccc(Cl)c2Cl)CC1 (stereo not drawn)
inhibition (Leishmania donovani [6]): inactive

OC(COc1ccc(-c2cc(-c3ccccc3Cl)c3cc(Cl)ccc3n2)cc1)CN1CCN(c2ccccc2Cl)CC1 (stereo not drawn)
inhibition (Leishmania donovani [6]): inactive

OC(COc1ccc(-c2cc(-c3ccccc3)c3cc(Cl)ccc3n2)cc1)CN1CCN(c2ccccc2)CC1 (stereo not drawn)
inhibition (Leishmania donovani [6]): inactive

OC(COc1ccc(-c2cc(-c3ccccc3)c3ccc(Br)cc3n2)cc1)CN1CCN(c2cccc(Cl)c2Cl)CC1 (stereo not drawn)
inhibition (Leishmania donovani [6]): inactive

O=[N+]([O-])c1ccc2nc(-c3ccc(OCC(O)CN4CCCC4)cc3)cc(-c3ccccc3)c2c1 (stereo not drawn)
inhibition (Leishmania donovani [6]): inactive

OC(COc1ccc(-c2cc(-c3ccccc3)c3ccccc3n2)cc1)CN1CCCC1 (stereo not drawn)
IC50 (Leishmania donovani [1]): 4.38 µM | CC50 at 48 h [2]: 20.8 µM | selectivity ratio [3]: 4.73

OC(COc1ccc(-c2cc(-c3ccccc3Cl)c3cc(Cl)ccc3n2)cc1)CN1CCN(c2ccccc2F)CC1 (stereo not drawn)
inhibition (Leishmania donovani [6]): inactive

OC(COc1ccc(-c2cc(-c3ccccc3)c3ccccc3n2)cc1)CN1CCN(c2ccccc2F)CC1 (stereo not drawn)
inhibition (Leishmania donovani [6]): inactive

OC(COc1ccc(-c2cc(-c3ccccc3)c3ccccc3n2)cc1)CN1CCN(c2cccc(Cl)c2Cl)CC1 (stereo not drawn)
inhibition (Leishmania donovani [6]): inactive

OC(COc1ccc(-c2cc(-c3ccccc3Cl)c3cc(Cl)ccc3n2)cc1)CN1CCN(c2ccccc2)CC1 (stereo not drawn)
inhibition (Leishmania donovani [6]): inactive

CCCCCCCCCCCCCCCCOP(=O)([O-])OCC[N+](C)(C)C [MILTEFOSINE]
IC50 (Leishmania donovani [1]): 9.25 µM | selectivity ratio [3]: 5.76

Cc1cc(-c2ccc(OCC(O)CN3CCN(c4cccc(Cl)c4Cl)CC3)cc2)nc2ccccc12 (stereo not drawn)
inhibition (Leishmania donovani [6]): inactive

O=C(c1ccco1)N1CCN(CC(O)COc2ccc(-c3cc(-c4ccccc4Cl)c4cc(Cl)ccc4n3)cc2)CC1 (stereo not drawn)
inhibition (Leishmania donovani [6]): inactive

Cc1ccc(Cl)cc1N1CCN(CC(O)COc2ccc(-c3cc(-c4ccccc4)c4ccccc4n3)cc2)CC1 (stereo not drawn)
inhibition (Leishmania donovani [6]): inactive

OC(COc1ccc(-c2cc(-c3ccccc3)c3cc(Cl)ccc3n2)cc1)CN1CCCC1 (stereo not drawn)
IC50 (Leishmania donovani [1]): 2.09 µM | CC50 at 48 h [2]: 21.4 µM | selectivity ratio [3]: 10.3 | inhibition in vivo at 50 mg/kg (Leishmania donovani [7]): 27.8% | inhibition in vivo at 50 mg/kg (Leishmania donovani [8]): 49.3% | Activity [9]: Non-Toxic | Activity [10]: Non-Toxic | Activity [11]: Non-Toxic | Cmax [12]: 17600 ng/mL | Tmax [13]: 2 h | AUC at 24 h [14]: 85000 ng·h/mL | half-life [15]: 4.67 h | CL/F [16]: 9.5 mL/min/kg | Vd [17]: 3.88 L/kg | MRT [18]: 6.35 h

OC(COc1ccc(-c2cc(-c3ccccc3)c3ccccc3n2)cc1)Cn1ccnc1 (stereo not drawn)
IC50 (Leishmania donovani [1]): 3.37 µM | CC50 at 48 h [2]: 34 µM | selectivity ratio [3]: 10.1

NC(CC(=O)N1CC(CO)C(c2ccc(Cl)cc2)C1)Cc1ccc(Cl)cc1 (stereo not drawn)
IC50 (Leishmania donovani [19]): 0.093 µM

OC(COc1ccc(-c2cc(-c3ccccc3F)c3cc(Cl)ccc3n2)cc1)CN1CCCC1 (stereo not drawn)
IC50 (Leishmania donovani [1]): 2.4 µM | CC50 at 48 h [2]: 22.7 µM | selectivity ratio [3]: 9.41
